Entries after “also recorded” stand apart in the source; their conditions may differ. Counter-ions that a name gives are not always drawn.

The test system of experiment [1] is HBV. The experiment is described as follows: Clinical response / resistance of HBV patients to nucleoside or nucleotide analog treatment. The format is in vivo, human. The text has this:
The present invention is predicated in part on the identification and isolation of nucleoside or nucleotide analog-resistant variants of HBV following treatment of patients with either ADV or LMV or ETV or more particularly ADV and LMV or TFV and LMV, or ETV and optionally one or more other nucleoside analogs or nucleotide analogs or other anti-HBV agents such as TFV, LdT, or FTC. […] Reference herein to “decreased” or “reduced” in relation to sensitivity to ADV and/or LMV and/or FTC and/or TFV and/or ETV includes and encompasses a complete or substantial resistance to the nucleoside or nucleotide analog or other anti-HBV agents as well as partial resistance and includes a replication rate or replication efficiency which is more than a wild-type in the presence of a nucleoside or nucleotide analog or other anti-HBV agents. In one aspect, this is conveniently measured by an increase in viral load during treatment, or alternatively, there is no substantial decrease in HBV DNA viral load from pre-treatment HBV DNA levels during treatment (i.e., non-response to treatment).
Hepatitis B surface antigen (HBsAg), hepatitis B e antigen (HBeAg), anti-HBe and hepatitis B core antigen (HBcAg) specific IgG and IgM were measured using commercially available immunoassays (Abbott Laboratories, North Chicago, Ill., USA). Hepatitis B viral DNA levels were measured using a capture hybridization assay according to the manufacturer's directions (Digene Hybrid Capture II, Digene Diagnostics Inc., Beltsville, Md.). The manufacturers stated cut-off for detecting HBV viremia in clinical specimens was 0.7×10^6 copies/ml or 2.5 pg/ml, [Hendricks et al, Am J Clin Pathol 104:537-46, 1995]. HBV DNA levels can also be quantitated using other commercial kits such as Cobas amplification HBV monitor kit (Roche). […]
The specific amplified products were purified using PCR purification columns from MO BIO Laboratories Inc (La Jolla, Calif.) and directly sequenced using Big Dye terminator Cycle sequencing Ready Reaction Kit (Perkin Elmer, Cetus Norwalk, Conn.). […]

Experiment [2] has as its system HBV. To be noted: cited from earlier work.
The nature of experiment [3]: ALT in patients during antiviral therapy. The format is in vivo, human. To be noted: Patient G, ADV therapy.
Experiment [4] has as its system HBV. The following applies: cited from earlier work. The source holds these as a separate data set.
Another experiment relates to HIV. To be noted: cited from earlier work.

Take `CC(C)(C)C(=O)OCOP(=O)(COCCn1cnc2c(N)ncnc21)OCOC(=O)C(C)(C)C` [ADV, adefovir dipivoxil]: the response to treatment result in the experiment on HBV [1] (human, in vivo) is “resistant; also recorded: did not respond”. In the experiment on HBV [2], the “inhibition of HBV replication” value is listed as “potent inhibitor”. In addition, the ALT in experiment [3] is listed as 467 IU/ml. Also, the “clinical activity against both wild-type and lamivudine-resistant strains of HBV” value in the experiment on HBV [4] (in vivo) was “demonstrated clinical activity”. Further, the “mean decrease in viremia” value in the experiment on HBV [4] (phase II studies, 30 mg daily dose, over 12 weeks) is 4 log10.
On to `C=C1[C@H](CO)[C@@H](O)C[C@@H]1n1cnc2c(=O)[nH]c(N)nc21` [ETV, entecavir], for which the response to treatment result with HBV [1] (Patient H, sequential then combination treatment) is on record as “resistant”; with HBV [1] (Patient J, previously treated with LMV, then ADV, then ETV), “did not respond”.
Regarding `Nc1nc(=O)n([C@@H]2CS[C@H](CO)O2)cc1F` [FTC, (−)-β-L-2′-3′-dideoxy-5-fluoro-3′-thiacydidine], in the experiment with HBV [2], the “activity against HBV” value is recorded as “activity”. Also, the “activity against HIV” value in the experiment with HIV was “activity”.
`Nc1ncnc2c1ncn2C1CC(O)C(CO)O1` [LdA, beta-L-2′-deoxyadenosine]: the “activity against HBV” value in the experiment on HBV [2] was “activity”.
With `Nc1ccn([C@@H]2C[C@@H](O)[C@H](CO)O2)c(=O)n1` [LdC, beta-L-2′-deoxycytidine], the “activity against HBV” value in the experiment with HBV [2] is reported as “activity”.
Consider `Cc1cn([C@@H]2C[C@@H](O)[C@H](CO)O2)c(=O)[nH]c1=O` [LdT, beta-Lthymidine], for which the “activity against HBV” value with HBV [2] is on record as “activity”.
Turning to `CC(C)OC(=O)OCOP(=O)(CO[C@H](C)Cn1cnc2c(N)ncnc21)OCOC(=O)OC(C)C` [TFV, tenofovir disoproxil fumarate], in the experiment on HBV [2], the “activity against HBV” value is on record as “antiviral activity” and the “inhibition of HBV replication” value is reported as “potent inhibitor”. In addition, the “activity against HIV” value with HIV is reported as “antiviral activity”.

The values are drawn from patent US9932646B2, “Detection and use of antiviral resistance mutations” (ABL SA, priority 2006, dated 2018).
